Measurements reported in patent publication US20230015308A1, “SUBSTITUTED THIAZOLE AROMATIC RING-BASED COMPOUND AND PREPARATION METHOD THEREFOR, HERBICIDAL COMPOSITION AND USE THEREOF” (QINGDAO KINGAGROOT CHEMICAL COMPOUND CO., LTD., priority 2019, published 2023).

How the values were obtained:
Assay in all cases: Weeding effect in post-emergence stage (greenhouse pot test)
Format in all cases: in vivo
Conditions in all cases: 15 g a.i./ha, 3 weeks after application
[1] = test system: Digitaria sanguinalis
From the text: (§1) The activity level criteria for plant damage (i.e., growth control rate) are as follows:
(§2) Level 5: growth control rate is above 85%;
(§3) Level 4: growth control rate is greater than or equal to 60% and less than 85%;
(§4) Level 3: growth control rate is greater than or equal to 40% and less than 60%;
(§5) Level 2: growth control rate is greater than or equal to 20% and less than 40%;
(§6) Level 1: growth control rate is greater than or equal to 5% and less than 20%;
(§7) Level 0: growth control rate is less than 5%.
(§8) The above growth control rates are fresh weight control rates.
(§9) Experiment on weeding effect in post-emergence stage:
(§10) Monocotyledonous and dicotyledonous weed seeds (Descurainia sophia, Capsella bursa-pastoris, Abutilon theophrasti, Galium aparine, Stellaria media, Lithospermum arvense, Rorippa indica, Alopecurus aequalis, Alopecurus japonicus, Beckmannia syzigachne, Sclerochloa dura, Conyza Canadensis, Phleum paniculatum, Veronica didyma Tenore, Eleusine indica, Bromus japonicus, Aegilops tauschii, Phalaris arundinacea, Amaranthus retroflexus, Chenopodium album, Commelina communis, Sonchus arvensis, Convolvulus arvensis, Cirsium setosum, Solanum nigrum, Acalypha australis, Digitaria sanguinalis, Echinochloa crusgalli, Setaria viridis, Setaria glauca, Leptochloa chinensis, Monochoria vaginalis, Sagittaria trifolia, Scirpus juncoides, Cyperus rotundus, Cyperus iria, Cyperus difformis, Fimbristylis, Portulaca oleracea, Xanthium sibiricum, Pharbitis nil) and major crop seeds (wheat, corn, rice, soybean, cotton, oilseed rape, millet, sorghum, potato, sesame, ricinus) were placed in plastic pots filled with soil, then covered with 0.5-2 cm of soil, allowed to grow in a good greenhouse environment. After 2 weeks of sowing, the test plants were treated in the 2-3 leaf stage. The tested compounds of the present invention were respectively dissolved in acetone, then added with Tween 80 and 1.5 liter/ha of emulsifiable concentrate of methyl oleate as synergist, diluted with a certain amount of water to obtain a solution with a certain concentration, and sprayed with a spray tower onto the plants. After the application, the plants were cultured for 3 weeks in the greenhouse, and then the experimental results of the weeding were counted. The doses of the used compounds were 500, 250, 125, 60, 15 g a.i./ha, and the averages were obtained by repeating for three times.

[2] = test system: Setaria viridis
From the text: as §1, §2, §3, §4, §5, §6, §7, §8, §9, §10

[3] = test system: Beckmannia syzigachne
From the text: as §1, §2, §3, §4, §5, §6, §7, §8, §9, §10

[4] = test system: Echinochloa crusgalli
From the text: as §1, §2, §3, §4, §5, §6, §7, §8, §9, §10

[5] = test system: Veronica didyma Tenore
From the text: as §1, §2, §3, §4, §5, §6, §7, §8, §9, §10

[6] = test system: Alopecurus japonicus
From the text: as §1, §2, §3, §4, §5, §6, §7, §8, §9, §10

[7] = test system: Abutilon theophrasti
From the text: as §1, §2, §3, §4, §5, §6, §7, §8, §9, §10

[8] = test system: Amaranthus retroflexus
From the text: as §1, §2, §3, §4, §5, §6, §7, §8, §9, §10

[9] = test system: Galium aparine
From the text: as §1, §2, §3, §4, §5, §6, §7, §8, §9, §10

CCOC(=O)c1cnc(-c2cc(-n3c(=S)cc(C(F)(F)F)n(C)c3=O)c(F)cc2Cl)s1 [1-103]
Digitaria sanguinalis, activity level (fresh weight growth control rate) [1]: 5 (Level 5: growth control rate is above 85%)
Setaria viridis, activity level (fresh weight growth control rate) [2]: 5 (Level 5: growth control rate is above 85%)
Beckmannia syzigachne, activity level (fresh weight growth control rate) [3]: 4 (Level 4: growth control rate is greater than or equal to 60% and less than 85%)
Echinochloa crusgalli, activity level (fresh weight growth control rate) [4]: 5 (Level 5: growth control rate is above 85%)
Veronica didyma Tenore, activity level (fresh weight growth control rate) [5]: 5 (Level 5: growth control rate is above 85%)
Alopecurus japonicus, activity level (fresh weight growth control rate) [6]: 4 (Level 4: growth control rate is greater than or equal to 60% and less than 85%)
Abutilon theophrasti, activity level (fresh weight growth control rate) [7]: 5 (Level 5: growth control rate is above 85%)
Amaranthus retroflexus, activity level (fresh weight growth control rate) [8]: 5 (Level 5: growth control rate is above 85%)
Galium aparine, activity level (fresh weight growth control rate) [9]: 5 (Level 5: growth control rate is above 85%)

CCOC(=O)c1cnc(-c2nc(-n3c(=O)cc(C(F)(F)F)n(C)c3=O)c(F)cc2Cl)s1 [1-107]
Digitaria sanguinalis, activity level (fresh weight growth control rate) [1]: 5 (Level 5: growth control rate is above 85%)
Setaria viridis, activity level (fresh weight growth control rate) [2]: 5 (Level 5: growth control rate is above 85%)
Beckmannia syzigachne, activity level (fresh weight growth control rate) [3]: 5 (Level 5: growth control rate is above 85%)
Echinochloa crusgalli, activity level (fresh weight growth control rate) [4]: 5 (Level 5: growth control rate is above 85%)
Veronica didyma Tenore, activity level (fresh weight growth control rate) [5]: 5 (Level 5: growth control rate is above 85%)
Alopecurus japonicus, activity level (fresh weight growth control rate) [6]: 5 (Level 5: growth control rate is above 85%)
Abutilon theophrasti, activity level (fresh weight growth control rate) [7]: 5 (Level 5: growth control rate is above 85%)
Amaranthus retroflexus, activity level (fresh weight growth control rate) [8]: 5 (Level 5: growth control rate is above 85%)
Galium aparine, activity level (fresh weight growth control rate) [9]: 5 (Level 5: growth control rate is above 85%)

CCOC(=O)c1cnc(-c2cc(-n3c(=O)n(C)c(=S)n(C)c3=O)c(F)cc2Cl)s1 [1-113]
Digitaria sanguinalis, activity level (fresh weight growth control rate) [1]: 4 (Level 4: growth control rate is greater than or equal to 60% and less than 85%)
Setaria viridis, activity level (fresh weight growth control rate) [2]: 5 (Level 5: growth control rate is above 85%)
Beckmannia syzigachne, activity level (fresh weight growth control rate) [3]: 4 (Level 4: growth control rate is greater than or equal to 60% and less than 85%)
Echinochloa crusgalli, activity level (fresh weight growth control rate) [4]: 5 (Level 5: growth control rate is above 85%)
Veronica didyma Tenore, activity level (fresh weight growth control rate) [5]: 5 (Level 5: growth control rate is above 85%)
Alopecurus japonicus, activity level (fresh weight growth control rate) [6]: 4 (Level 4: growth control rate is greater than or equal to 60% and less than 85%)
Abutilon theophrasti, activity level (fresh weight growth control rate) [7]: 5 (Level 5: growth control rate is above 85%)
Amaranthus retroflexus, activity level (fresh weight growth control rate) [8]: 5 (Level 5: growth control rate is above 85%)
Galium aparine, activity level (fresh weight growth control rate) [9]: 5 (Level 5: growth control rate is above 85%)

CCOC(=O)c1cnc(-c2nc(-n3c(=O)n(C)c(=S)n(C)c3=O)c(F)cc2Cl)s1 [1-123]
Digitaria sanguinalis, activity level (fresh weight growth control rate) [1]: 5 (Level 5: growth control rate is above 85%)
Setaria viridis, activity level (fresh weight growth control rate) [2]: 5 (Level 5: growth control rate is above 85%)
Beckmannia syzigachne, activity level (fresh weight growth control rate) [3]: 5 (Level 5: growth control rate is above 85%)
Echinochloa crusgalli, activity level (fresh weight growth control rate) [4]: 5 (Level 5: growth control rate is above 85%)
Veronica didyma Tenore, activity level (fresh weight growth control rate) [5]: 5 (Level 5: growth control rate is above 85%)
Alopecurus japonicus, activity level (fresh weight growth control rate) [6]: 5 (Level 5: growth control rate is above 85%)
Abutilon theophrasti, activity level (fresh weight growth control rate) [7]: 5 (Level 5: growth control rate is above 85%)
Amaranthus retroflexus, activity level (fresh weight growth control rate) [8]: 5 (Level 5: growth control rate is above 85%)
Galium aparine, activity level (fresh weight growth control rate) [9]: 5 (Level 5: growth control rate is above 85%)
